Measurements from KR20110126596A, “자외선 방지제” (고쿠리츠 다이가쿠 호우징 지바 다이가쿠, priority 2008, dated 2010).

Test system: RS cells [RS 세포]
Assay: MTT assay of UV (UVC) irradiation-induced cell damage in cultured human RS cells pretreated with the substance
Assay type: cell-based
Conditions: UV 14 J/m2; for resistance to UV-induced cell damage compared with cells cultured without addition (in words): EPH 1/10 or 1/100 (v/v), 1 day, 3 days after irradiation (Fig. 2)

For `OCCOc1ccccc1` [페녹시에탄올], the “resistance to UV-induced cell damage compared with cells cultured without addition (in words)” value (listed as EPH) was “높은 저항성을 나타내었다”, the “resistance to UV-induced cell damage compared with cells cultured without addition (in words)” value (listed as 하이솔브 EPH) was “높은 저항성을 나타낸다” and the “resistance to cell damage by UV irradiation, compared with no addition” value (phenoxyethanol added at 1/10 - 1/100 (v/v), 1 day pretreatment, MTT 3 days after irradiation) was no less than 2 fold.
